According to patent US7632811B2, “Analogs of parathyroid hormone” (Societe de Conseils de Recherches et D'Applications …, priority 1995, dated 2009):
Where two headings read alike, the source gives them in different places. Non-standard residues stand in square brackets, D forms with d. Residues, ends and D or L forms follow the SMILES beside them. Cha = N[C@@H](CC1CCCCC1)C(=O)O; Ac6c = NC1(C(=O)O)CCCCC1; Aib = CC(C)(N)C(=O)O

Target: T1, PTH receptor present on SaOS-2 (human osteosarcoma cells) (Homo sapiens, UniProt Q03431)
T1 construct: host or cells: SaOS-2 human osteosarcoma cells (intact, confluent monolayers)
T1 sequence (Q03431 27-593): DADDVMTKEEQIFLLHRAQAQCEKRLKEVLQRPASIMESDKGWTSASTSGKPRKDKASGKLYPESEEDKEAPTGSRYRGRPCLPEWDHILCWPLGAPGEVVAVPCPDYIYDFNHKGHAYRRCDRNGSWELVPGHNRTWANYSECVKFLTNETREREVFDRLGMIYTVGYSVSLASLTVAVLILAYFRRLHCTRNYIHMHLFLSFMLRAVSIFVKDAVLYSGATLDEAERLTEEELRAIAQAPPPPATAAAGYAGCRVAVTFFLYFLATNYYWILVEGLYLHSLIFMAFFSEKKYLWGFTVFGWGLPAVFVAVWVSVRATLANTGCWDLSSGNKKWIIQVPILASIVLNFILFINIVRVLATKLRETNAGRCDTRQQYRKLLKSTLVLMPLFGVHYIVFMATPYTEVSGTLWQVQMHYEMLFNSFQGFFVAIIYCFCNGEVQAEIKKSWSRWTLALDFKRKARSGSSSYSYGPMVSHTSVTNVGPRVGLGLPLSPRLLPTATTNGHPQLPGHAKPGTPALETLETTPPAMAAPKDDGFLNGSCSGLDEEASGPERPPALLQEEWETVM
Experiment: Binding to PTH receptor on SaOS-2 cells (competition with mono-125I-[Nle8,18,Tyr34(3-125I)]bPTH(1-34)NH2)
Conditions: 2 hrs at room temperature, read-out: Kd (half maximal inhibition of binding of mono-125I-[Nle8,18, Tyr34(3-125I)]bPTH(1-34)NH2)
How it was run: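 Confluent SaOS-2 cells in 5% FBS RPMI were incubated 2 h at room temperature with 10×10^4 cpm mono-125I-[Nle8,18,Tyr34(3-125I)]bPTH(1-34)NH2 plus competing peptide at 10^−11 to 10^−4 M. After washing, cell-bound radioactivity was counted; Kd taken as half-maximal inhibition of tracer binding.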

Row | Kd (Table I) | Kd (Table II) | SMILES
1 | 7 nM |  | CC[C@H](C)[C@H](NC(=O)[C@H](CCC(=O)O)NC(=O)[C@H](CO)NC(=O)[C@@H](NC(=O)[C@@H](N)CO)C(C)C)C(=O)N[C@@H](CCC(N)=O)C(=O)N[C@@H](CC(C)C)C(=O)N[C@@H](CCSC)C(=O)N[C@@H](Cc1c[nH]cn1)C(=O)N[C@@H](CC(N)=O)C(=O)N[C@@H](CC(C)C)C(=O)NCC(=O)N[C@@H](CCCCN)C(=O)N[C@@H](Cc1c[nH]cn1)C(=O)N[C@@H](CC(C)C)C(=O)N[C@@H](CC(N)=O)C(=O)N[C@@H](CO)C(=O)N[C@@H](CCSC)C(=O)N[C@@H](CCC(=O)O)C(=O)N[C@@H](CCCNC(=N)N)C(=O)N[C@H](C(=O)N[C@@H](CCC(=O)O)C(=O)N[C@@H](Cc1c[nH]c2ccccc12)C(=O)N[C@@H](CC(C)C)C(=O)N[C@@H](CCCNC(=N)N)C(=O)N[C@@H](CCCCN)C(=O)N[C@@H](CCCCN)C(=O)N[C@@H](CC(C)C)C(=O)N[C@@H](CCC(N)=O)C(=O)N[C@@H](CC(=O)O)C(=O)N[C@H](C(=O)N[C@@H](Cc1c[nH]cn1)C(=O)N[C@@H](CC(N)=O)C(=O)NC(C)(C)C(N)=O)C(C)C)C(C)C [[Aib^34]hPTH(1-34)NH2]
2 |  | 6 nM | CC[C@H](C)[C@H](NC(=O)[C@H](CO)NC(=O)[C@H](CCCCN)NC(=O)CNC(=O)[C@H](CCCCN)NC(=O)[C@H](CC(=O)O)NC(=O)[C@H](Cc1c[nH]cn1)NC(=O)[C@H](CC(C)C)NC(=O)[C@H](CC(C)C)NC(=O)[C@H](CCC(N)=O)NC(=O)[C@H](Cc1c[nH]cn1)NC(=O)[C@H](CCC(=O)O)NC(=O)[C@H](CO)NC(=O)[C@@H](NC(=O)[C@H](C)N)C(C)C)C(=O)N[C@@H](CCC(N)=O)C(=O)N[C@@H](CC(=O)O)C(=O)N[C@@H](CC(C)C)C(=O)N[C@@H](CCCNC(=N)N)C(=O)N[C@@H](CCCNC(=N)N)C(=O)N[C@@H](CCCNC(=N)N)C(=O)N[C@@H](CCC(=O)O)C(=O)N[C@@H](CC(C)C)C(=O)NC1(C(=O)N[C@@H](CCC(=O)O)C(=O)N[C@@H](CCCCN)C(=O)N[C@@H](CC(C)C)C(=O)N[C@@H](CC(C)C)C(=O)NC(C)(C)C(=O)N[C@@H](CCCCN)C(=O)N[C@@H](CC(C)C)C(=O)N[C@@H](Cc2c[nH]cn2)C(=O)N[C@H](C(=O)N[C@@H](C)C(N)=O)[C@@H](C)O)CCCCC1 [[Glu^22,25, Leu^23,28,31, Ahc^24, Lys^26,30, Aib^29]hPTHrP(1-34)NH2] (H-AVSEHQLLHDKGKSIQDLRRREL[Ac6c]EKLL[Aib]KLHTA-NH2; N-terminus assumed)
3 | 10 nM |  | CC[C@H](C)[C@H](NC(=O)[C@H](CCC(=O)O)NC(=O)[C@H](CO)NC(=O)[C@@H](NC(=O)[C@@H](N)CO)C(C)C)C(=O)N[C@@H](CCC(N)=O)C(=O)N[C@@H](CC1CCCCC1)C(=O)N[C@@H](CCSC)C(=O)N[C@@H](Cc1c[nH]cn1)C(=O)N[C@@H](CC(N)=O)C(=O)N[C@@H](CC1CCCCC1)C(=O)NCC(=O)N[C@@H](CCCCN)C(=O)N[C@@H](Cc1c[nH]cn1)C(=O)N[C@@H](CC(C)C)C(=O)N[C@@H](CC(N)=O)C(=O)N[C@@H](CO)C(=O)N[C@@H](CCSC)C(=O)N[C@@H](CCC(=O)O)C(=O)N[C@@H](CCCNC(=N)N)C(=O)N[C@H](C(=O)N[C@@H](CCC(=O)O)C(=O)N[C@@H](Cc1c[nH]c2ccccc12)C(=O)N[C@@H](CC(C)C)C(=O)N[C@@H](CCCNC(=N)N)C(=O)N[C@@H](CCCCN)C(=O)N[C@@H](CCCCN)C(=O)N[C@@H](CC(C)C)C(=O)N[C@@H](CCC(N)=O)C(=O)N[C@@H](CC(=O)O)C(=O)N[C@H](C(=O)N[C@@H](Cc1c[nH]cn1)C(=O)N[C@@H](CC(N)=O)C(=O)N[C@@H](Cc1ccccc1)C(N)=O)C(C)C)C(C)C [[Cha^7,11]hPTH(1-34)NH2] (H-SVSEIQ[Cha]MHN[Cha]GKHLNSMERVEWLRKKLQDVHNF-NH2)
